Experiments:
SKBR3 = assay: Cell morphological assessment (DAPI staining, apoptosis); format: cell-based; settings: SK-BR3, 2, 5, 10 μM, 24 h
Experimental: (§1) To detect morphological evidence of apoptosis, HCT116, MCF-7 and SKBR3 cell nuclei were visualized following DNA staining with the fluorescent dye DAPI. Briefly, cells were seeded at a concentration of 1×10^5 cells/well in 6-well tissue culture plates and treated with indicated concentration of S13. At the end of incubation, the morphology of cells was monitored under an inverted light microscope. Cells were then fixed with 4% paraform for 20 min and washed with PBS, and then incubated with DAPI (1 μg/ml) for 10 min. After washed with PBS, cells were observed using fluorescent microscopy (Olympus, Japan) with a peak excitation wave length of 340 nm.

MCF-7 = assay: as above; format: cell-based
Experimental: as §1

HCT116 = assay: as above; format: cell-based; settings: HCT116, 2, 5, 10 μM, 24 h
Experimental: as §1

Hsp70 = biological target: T1, Hsp70 (Homo sapiens, UniProt P0DMV8); assay: Hsp70 ATPase activity assay (ADP Hunter Plus); format: biochemical
T1 construct: purchased Enzo Life science ALX-201-214-C025
T1 sequence (P0DMV8 whole entry): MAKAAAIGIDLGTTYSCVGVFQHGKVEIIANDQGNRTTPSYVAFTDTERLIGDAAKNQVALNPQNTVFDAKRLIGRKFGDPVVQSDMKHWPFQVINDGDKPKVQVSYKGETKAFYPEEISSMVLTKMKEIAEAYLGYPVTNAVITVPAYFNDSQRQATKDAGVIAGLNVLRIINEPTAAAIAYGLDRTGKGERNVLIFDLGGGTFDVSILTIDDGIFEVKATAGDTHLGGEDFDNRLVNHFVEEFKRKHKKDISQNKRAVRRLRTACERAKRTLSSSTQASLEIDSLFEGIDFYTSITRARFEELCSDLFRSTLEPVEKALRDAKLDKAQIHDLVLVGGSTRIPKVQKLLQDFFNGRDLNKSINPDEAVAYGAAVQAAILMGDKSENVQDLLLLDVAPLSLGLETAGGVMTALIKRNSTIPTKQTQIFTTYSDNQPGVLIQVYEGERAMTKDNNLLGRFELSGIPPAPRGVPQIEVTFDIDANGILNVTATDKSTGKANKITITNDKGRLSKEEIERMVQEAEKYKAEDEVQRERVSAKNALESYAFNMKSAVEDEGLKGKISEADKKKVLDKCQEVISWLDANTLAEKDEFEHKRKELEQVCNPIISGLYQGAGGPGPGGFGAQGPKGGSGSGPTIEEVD
From the text: The following materials were used for the biological evaluation: The PET-28a HSP90 expression vector was constructed. The Ni^2+-nitrilo-triacetic acid (NTA) agarose was purchased from General Electric (USA). […] Isopropyl-1-thio-d-galactopyranoside (IPTG) was purchased from Sigma (St. Lousi. MO). Antibodies of β-Actin, Hsp70, Hsp90, c-Raf, Akt, Src, Phospho-Src, ERK and Her-2 were purchased from Cell Signaling Technology (Danvers, MA). Anti-p-Akt(S473) was purchased from Signalway Antibody (Baltimore, MD). HIF-1α antibody was purchased from R&D systems. The stock solution of Hsp90 was prepared in a 20 mM Tris-Cl buffer with a pH 7.4, and concentration was fixed at 5.0 μM. […] The screened out compounds were purchased from SPECS and dissolved in DMSO (Sigma, St. Louis, MO) to make a final concentration of 10^−2 mol/L and were stored at −20°C. […] The water used in the experiments was thrice-distilled and all other materials were of analytical reagent grade.
Hsp70 ATPase activity was measured using Discover RX ADP Hunter^TM Plus Assay kit assay as descripted in the manufacturer's instructions. Breifly, Hsp70 (3 μM) was incubated with 1 mM ATP in 100 mM Tris pH 7.4 at 37°C for 3 h in the presence or absence of various concentrations of test compounds. ADP generation was measured using Varioskan multimode microplate spectrophotometer (540 nm excitation and 620 nm emission). Fluorescence intensity values measured for Hsp70 without any testing compound was assumed as 100% of enzyme activity. The background reaction rate was measured in a reaction lacking enzyme or substrate and subtracted from the experimental rates.

COc1ccccc1N1CCN(CC(O)COCCOc2ccc(Br)cc2)CC1 (stereo not drawn) [Compound S13]
apoptosis-induced effects (SKBR3): dose-dependent
apoptosis induced (MCF-7; 10 μM, MCF-7 cells): over 50%
apoptosis-induced effects (MCF-7; MCF-7, 2, 5, 10 μM, 24 h): dose-dependent
apoptosis-induced effects (HCT116): dose-dependent
IC50 (Hsp70; ADP Hunter Plus assay): 43.8 ± 4.38 µM
selectivity HSP90 over HSP70 (Hsp70; ratio of IC50 HSP70 / HSP90, ADP fluorescence assay): over 15 times
